Test results reported in a melting point compilation (Tetko et al.; mined from patent text by program, amines drawn as free bases though some values may be those of a salt).

Row | SMILES | melting point [°C]
1 | COc1ccccc1NC(=O)Nc1ccc(CC(=O)O)cc1C | 260 to 264
2 | CCOC(=O)c1[nH]c2cc(Br)c(Cl)cc2c1-c1ccccc1 | 205 to 206
3 | FC(F)(F)Oc1ccc2nc(-c3ccc(Cl)cc3)[nH]c2c1 | 190 to 192
4 | CC(C)NC(=O)OC1SCN(c2ccccc2)C1=O (configuration not stated) | 130 to 132
5 | COc1cc(OC)nc(C2(O)OC(=O)c3c(Cl)ccc(Cl)c32)n1 (configuration not stated) | 161 to 175
6 | CCCCCCC(=O)N[C@@H]1N=C(c2ccccc2)c2ccccc2N(C)C1=O | 49 to 54
7 | CCOC(=O)C(=O)c1oc(-n2ccnc2C)nc1-c1ccc(Cl)cc1 | 126 to 127
8 | Oc1c(Cl)cc(Cl)cc1CNc1cnsn1 | 131 to 132
9 | CCOC(=O)c1cn(-c2nnc(C)s2)cn1 | 121 to 122
10 | N=C(NN)c1cccc(Cc2c[nH]cn2)c1O | 188
11 | CC(C)c1ccc(Nc2ccccc2[N+](=O)[O-])c(C#N)c1 | 91 to 96
12 | Cc1cc(CNC(=O)c2cc(-n3cnn(Cc4ccc(F)cc4)c3=O)n[nH]2)no1 | 276 to 277
13 | CCOC(=O)c1cc(F)c(SCC)nc1NCc1ccc(OC)cc1 | 59
14 | NC(=O)N(O)CCNC(=O)Cc1ccccc1Nc1c(Cl)cccc1Cl | 187 to 189
15 | CC(C=CC=C(C)c1cc2c(s1)C(C)(C)CCC2(C)C)=CC(=O)O | 226 to 228
16 | Cc1ccc(C(=O)c2ccc(C(C)C(=O)O)cc2)s1 (configuration not stated) | 93.7
17 | CCN(CC)C(=O)c1cc(C)nc([N+](=O)[O-])c1 | 90 to 91
18 | COc1cc(-c2nn(C)c(C#N)c2C)c(F)cc1Cl | 155 to 156
19 | Nc1nc(-c2cc(OCc3ccccc3)no2)cs1 | 129 to 131
20 | Cc1ccccc1-c1ccc(C(=O)N2Cc3cccn3Cc3ccccc32)cc1C | 145 to 148
21 | Cc1nc(Sc2ccc(C(=O)O)cn2)sc1CC(=O)O | 226 to 228
22 | CC1(C)OC(=O)Nc2ccc(/C(=C/C(N)=O)c3ccccc3)cc21 | 219 to 220
23 | C=CCc1ccc(OCCC(C)C)c2c(=O)cc(C(=O)OCC)oc12 | 104 to 106
24 | CN1C(=O)C2(COc3cc4c(cc32)OCCO4)c2c(N3CCOCC3)cccc21 (configuration not stated) | 246 to 249
25 | CCCCCNS(=O)(=O)NC(=O)/C(C)=C/c1ccc(OC(C)C)cc1Oc1ncc(C(F)(F)F)cc1Cl | 138
26 | Oc1ccc2cc(OCC(O)CCc3cccnc3)ccc2c1 (configuration not stated) | 165 to 166

Row | SMILES | melting point [°C]
27 | COc1ccc(I)c2c1CC(NC(C)=O)CC2 (configuration not stated) | 190
28 | CC(C)(C)c1cc(CCc2ccccc2NC(=O)NCCc2ccc(Cl)cc2)cc(C(C)(C)C)c1O | 173 to 174
29 | CCc1cc(CCCOc2c(C)cc(C#N)cc2C)on1 | 50 to 51
30 | Cn1c(CC#N)ccc1C(=O)c1cccs1 | 132 to 133
31 | CCCOc1ccc2ccccc2c1-c1c(OCCC)ccc2ccccc12 | 87
32 | CC1SC(=O)NN=C1c1ccc2c(c1)C(C)(C)C(=O)N2C(=O)c1cccnc1 (configuration not stated) | 245
33 | Cc1nnsc1C(=O)c1[nH]c2ccc(Cl)cc2c1CC(=O)O | 229 to 230
34 | O=C(O)Cc1cccc(C(=O)c2cccs2)c1Cl | 112
35 | Nc1ccc2c(c1)CC(N1CCN(CCN3CCOC3=O)CC1)c1ccccc1S2 (configuration not stated) | 193 to 196
36 | CC(=O)Nc1ccc2c3c(cccc13)S(=O)(=O)C(C)N2 (configuration not stated) | 189 to 190
37 | C#CCOc1cc(-c2ncnc(C(Cl)Cl)c2Cl)c(F)cc1Cl | 86 to 88
38 | CCN(CCNS(C)(=O)=O)c1ccc(N)c(C)c1 | 128 to 130
39 | CS(=O)(=O)c1ccc(-c2cc(Br)sc2-c2ccc(F)cc2)cc1 | 122 to 124
40 | CCCn1cc(C(=O)NCc2ccc(Cl)cc2)c(=O)c2cc(CCl)sc21 | 186 to 188
41 | O=C(CC1=CC(O)CC1=O)Oc1ccc2ccccc2c1 (configuration not stated) | 81
42 | Nc1cc2c(cn1)CC(c1ccc(Cl)cc1Cl)c1ccccc1-2 (configuration not stated) | 189 to 193
43 | O=C(NCc1ccccc1)c1ccnc(NC(=O)c2ccc(F)cc2)c1 | 170 to 171
44 | CS(=O)(=O)c1cccc(-n2ccc(=O)c(-c3ccnn3-c3ccccc3)n2)c1 | 199 to 200
45 | CS(=O)(=O)Nc1ccc(NC(=O)C(=O)O)cc1 | > 260
46 | Cc1c(C(=O)c2ccc(O)cc2)oc2ccc([N+](=O)[O-])cc12 | 235
47 | COc1ccc(Cc2ncc(CO)c3cc(OC)c(OC)cc23)cc1OC | 140 to 146
48 | C=CCc1c(O)cc(C)c(O)c1C | 114 to 116
49 | COc1ccc(CS(=O)CC(=O)NO)cc1 (configuration not stated) | 160
50 | Cc1ccccc1C1c2cc(NC(=O)CC(C)(C)C)c(C)c(C)c2OC1(C)C (configuration not stated) | 161 to 162
51 | N#Cc1cccc(C2=Nc3ccc(C#CC4=CCCCC4)cc3NC(=O)C2)c1 | 228
52 | CC(C)(C(N)=O)c1cccc(Cn2ccnc2)c1 | 79 to 82
